Calls of active or inactive are those of the source. How the calls were made is not given here. Where only a bound is given, the exact number is not on record here.

For 18 compounds, IC50 results are on record in PubChem BioAssay AID602133 (Sanford-Burnham Center for Chemical Genomics, 2011).

The target of the test is glucose-6-phosphate dehydrogenase-6-phosphogluconolactonase (Plasmodium falciparum 3D7). The test can be described thus: inhibition of P. falciparum G6PD rate – biochemical, kinetic direct NADPH detection, set 2, orthogonal assay for PfG6PD antimalarial inhibitor project, SAR follow-up (AID 602133). The following applies: recombinant PfG6PD.

`NC1CCN(C(=O)c2ccc3c(c2)NC(=O)c2ccccc2S3)C1` (stereo not drawn): the IC50 is > 80 µM (inactive).

As to `CCN1CCCC1CNC(=O)c1ccc2c(c1)NC(=O)/C(=C/c1ccc(F)cc1)S2` (stereo not drawn), the IC50 was 2.06 µM.

In the case of `CCN1CCC[C@@H]1CNC(=O)c1ccc2c(c1)NC(=O)c1ccccc1S2`, the IC50 was 4.84 µM.

In the case of `CCN1CCC[C@H]1CNC(=O)c1ccc2c(c1)NC(=O)c1ccccc1S2`, the half-inhibitory concentration (IC50) is 46.4 µM.

Consider `CCN1CCC[C@@H]1CNC(=O)c1ccc2c(c1)NC(=O)/C(=C/c1ccccc1F)S2`, for which the IC50 is 1.94 µM.

For `CCN1CCCC1CNC(=O)c1ccc2c(c1)NC(=O)/C(=C/c1ccc3ccccc3c1)S2` (stereo not drawn), the half-inhibitory concentration (IC50) is 2.88 µM.

As for `CCN1CCCC1CNC(=O)c1ccc2c(c1)NC(=O)C(Cc1ccccc1F)S2` (stereo not drawn), the IC50 is > 80 µM (inactive).

Turning to `O=C(NCCN1CCOCC1)c1ccc2c(c1)NC(=O)c1ccccc1S2`, the IC50 was > 80 µM (inactive).

As for `CCN1CCC[C@H]1CNC(=O)c1ccc2c(c1)NC(=O)/C(=C/c1ccccc1F)S2`, the half-maximal inhibitory concentration (IC50) is 4.65 µM.

With `CCN(CC)CCNC(=O)c1ccc2c(c1)NC(=O)/C(=C/c1ccccc1F)S2`, the half-inhibitory concentration (IC50) is 4.75 µM.

In the case of `CN(C)c1ccccc1CNC(=O)c1ccc2c(c1)NC(=O)/C(=C/c1ccccc1F)S2`, the IC50 is 67.8 µM.

Consider `NCCNC(=O)c1ccc2c(c1)NC(=O)c1ccccc1S2`, for which the IC50 was > 80 µM (inactive).

As for `CCC(C)N(CCNC(=O)c1ccc2c(c1)NC(=O)c1ccccc1S2)C1CCCCC1` (stereo not drawn), the IC50 was 13.3 µM.

For the compound `CC(C)(C)OC(=O)N1CCCC1CNC(=O)c1ccc2c(c1)NC(=O)/C(=C/c1ccccc1F)S2` (stereo not drawn), the 50% inhibitory concentration (IC50) is 24.4 µM.

With `O=C(NCCN1CCCCC1)c1ccc2c(c1)NC(=O)c1ccccc1S2`, the IC50 is 18.3 µM.

Take `CCC(C)N1CCCC1CNC(=O)c1ccc2c(c1)NC(=O)c1ccccc1S2` (stereo not drawn): the IC50 is 9.97 µM.

On to `CCN(CC)CCCC(C)Nc1ccnc2cc(Cl)ccc12` (stereo not drawn), for which the IC50 was 43 µM.

Turning to `NC1CCN(C(=O)c2ccc3c(c2)NC(=O)/C(=C/c2ccccc2F)S3)C1` (stereo not drawn), the IC50 is 35 µM.

One may read the IC50 as the concentration that gives 50% inhibition.
